Measurements taken from patent publication US20230135152A1 (ACURASTEM INCORPORATED, priority 2020, published 2023).

Tests used:
PIKFYVE [1] = molecular target: T1, PIKFYVE (Homo sapiens, UniProt Q9Y2I7); test: PIKFYVE assay (luciferase ADP-Glo kinase assay, Promega); type: biochemical; details: Table 3
In short: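 Kinase activity measured with a luciferase-based ADP-Glo read-out, which quantifies ADP formed by the enzyme.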

PIKFYVE [2] = molecular target: T1, PIKFYVE; test: Cell-based Pikfyve inhibition activity assay (EEA1 staining, mean vesicle size in BJ fibroblast cells); details: Table 4, 4 hours treatment, 3 μM Apilimod = 100% inhibition
In short: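 BJ fibroblasts treated 4 h at 37° C with eleven 3-fold doses (0.03-3000 nM), then fixed and stained for EEA1. Confocal images (20×, 16 tiles/well) analysed for mean vesicle size. Normalised to 0.5% DMSO (0%) and 3 μM apilimod (100%); dose-response fitted with variable slope.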

T1 sequence (Q9Y2I7 whole entry): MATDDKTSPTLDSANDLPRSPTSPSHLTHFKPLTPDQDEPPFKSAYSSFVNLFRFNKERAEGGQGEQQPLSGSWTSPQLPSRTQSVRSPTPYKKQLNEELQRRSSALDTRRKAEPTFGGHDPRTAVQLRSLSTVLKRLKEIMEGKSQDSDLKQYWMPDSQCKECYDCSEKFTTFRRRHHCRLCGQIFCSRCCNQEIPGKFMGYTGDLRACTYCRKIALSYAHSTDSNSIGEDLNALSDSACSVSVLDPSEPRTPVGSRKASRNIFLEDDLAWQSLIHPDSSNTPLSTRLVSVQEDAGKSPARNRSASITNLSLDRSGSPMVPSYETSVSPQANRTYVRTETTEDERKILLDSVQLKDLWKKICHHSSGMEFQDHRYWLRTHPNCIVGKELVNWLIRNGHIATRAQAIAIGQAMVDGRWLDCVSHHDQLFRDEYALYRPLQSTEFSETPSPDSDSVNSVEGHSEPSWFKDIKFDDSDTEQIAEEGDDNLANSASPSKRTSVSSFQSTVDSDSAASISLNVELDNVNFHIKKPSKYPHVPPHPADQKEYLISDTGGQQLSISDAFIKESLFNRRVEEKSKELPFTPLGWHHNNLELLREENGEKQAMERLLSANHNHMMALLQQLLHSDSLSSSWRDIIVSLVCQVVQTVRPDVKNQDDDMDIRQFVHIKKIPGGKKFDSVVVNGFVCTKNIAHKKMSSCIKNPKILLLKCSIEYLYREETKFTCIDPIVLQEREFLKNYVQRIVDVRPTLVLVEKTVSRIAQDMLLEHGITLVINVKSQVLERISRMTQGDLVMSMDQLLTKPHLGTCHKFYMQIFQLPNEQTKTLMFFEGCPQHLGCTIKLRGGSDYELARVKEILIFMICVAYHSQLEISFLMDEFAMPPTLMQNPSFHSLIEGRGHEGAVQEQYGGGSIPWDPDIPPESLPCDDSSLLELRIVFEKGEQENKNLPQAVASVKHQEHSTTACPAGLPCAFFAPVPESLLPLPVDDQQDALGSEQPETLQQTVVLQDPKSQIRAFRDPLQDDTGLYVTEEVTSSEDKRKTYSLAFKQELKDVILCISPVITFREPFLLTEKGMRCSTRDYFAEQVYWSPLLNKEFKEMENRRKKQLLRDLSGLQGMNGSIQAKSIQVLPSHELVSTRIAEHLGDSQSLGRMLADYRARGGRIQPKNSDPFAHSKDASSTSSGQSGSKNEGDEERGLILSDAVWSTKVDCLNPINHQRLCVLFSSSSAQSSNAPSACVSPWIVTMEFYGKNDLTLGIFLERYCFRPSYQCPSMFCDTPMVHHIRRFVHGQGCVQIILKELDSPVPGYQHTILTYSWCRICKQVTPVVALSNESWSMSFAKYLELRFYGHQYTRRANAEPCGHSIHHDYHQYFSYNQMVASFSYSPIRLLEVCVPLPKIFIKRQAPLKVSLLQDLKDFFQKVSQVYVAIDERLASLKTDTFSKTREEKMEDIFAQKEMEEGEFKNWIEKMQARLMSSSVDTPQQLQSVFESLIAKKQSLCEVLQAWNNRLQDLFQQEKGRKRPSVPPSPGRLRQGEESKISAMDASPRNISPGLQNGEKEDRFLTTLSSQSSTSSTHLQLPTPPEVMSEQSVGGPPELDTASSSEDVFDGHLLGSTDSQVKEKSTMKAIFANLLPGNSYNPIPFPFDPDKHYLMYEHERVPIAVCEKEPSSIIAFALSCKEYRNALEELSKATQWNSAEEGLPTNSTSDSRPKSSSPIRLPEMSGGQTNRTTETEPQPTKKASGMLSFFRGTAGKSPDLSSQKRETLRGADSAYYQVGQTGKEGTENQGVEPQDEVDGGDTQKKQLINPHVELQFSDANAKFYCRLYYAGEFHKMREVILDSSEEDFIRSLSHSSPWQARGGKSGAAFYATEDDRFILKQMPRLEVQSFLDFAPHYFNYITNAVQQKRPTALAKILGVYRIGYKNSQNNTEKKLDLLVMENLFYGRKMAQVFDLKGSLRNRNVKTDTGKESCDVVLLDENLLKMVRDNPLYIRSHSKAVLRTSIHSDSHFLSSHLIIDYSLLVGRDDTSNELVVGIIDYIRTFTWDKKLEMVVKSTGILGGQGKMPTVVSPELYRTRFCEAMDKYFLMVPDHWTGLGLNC

| IC50 (PIKFYVE [1]) [nM] | EC50 (PIKFYVE [2]) [nM] | Structure (SMILES) |
| --- | --- | --- |
| < 3 | < 20 | C/C=C/COc1nc(N2CCOCC2)cc(-n2ccc(-c3cccc(C)c3)n2)n1 [Compound 102, (E)-4-(2-(but-2-en-1-yloxy)-6-(3-(m-tolyl)-1H-pyrazol-1-yl)pyrimidin-4-yl)morpholine] |
| 3 to 10 | 100 to 500 | Cn1cc(CCOc2nc(N3CCOCC3)cc(-n3ccc(-c4ccccn4)n3)n2)cn1 [Compound 194, 4-(2-(2-(1-methyl-1H-pyrazol-4-yl)ethoxy)-6-(3-(pyridin-2-yl)-1H-pyrazol-1-yl)pyrimidin-4-yl)morpholine] |
| < 3 | 100 to 500 | Cc1cccc(-c2ccn(-c3cc(N4CCOCC4)nc(OC4COC4)n3)n2)c1 [Compound 110, 4-(2-(oxetan-3-yloxy)-6-(3-(m-tolyl)-1H-pyrazol-1-yl)pyrimidin-4-yl)morpholine] |
